Reference: the supplement of paper PMC4862054

Columns and labels:
Test in all cases: normalised response (% of control), CellTiter-Glo; higher = more viable cells (100 = DMSO, 0 = benzethonium chloride kill control)
Details in all cases: incubation time: 72 h
CAL-120 = test system: CAL-120
Procedure, shortened: (§1)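 A 20 µl suspension of breast cancer cells was seeded into each well of 384-well plates containing compound at 5 concentrations in 10-fold steps over a compound-specific 10,000-fold range. After 72 h incubation, CellTox Green fluorescence (485/520 nm) was read first, and CellTiter-Glo luminescence was read after 10 min at room temperature. Each plate was normalised against 0.1 % DMSO (100) and a positive kill control (0), and each value is the normalised signal at one concentration.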

MCF-10A = test system: MCF-10A
Procedure, shortened: as §1

CAL-85-1 = test system: CAL-85-1
Procedure, shortened: as §1

MDA-MB-436 = test system: MDA-MB-436
Procedure, shortened: as §1

HCC1143 = test system: HCC1143
Procedure, shortened: as §1

MDA-MB-231 = test system: MDA-MB-231
Procedure, shortened: as §1

HCC1937 = test system: HCC1937
Procedure, shortened: as §1

CAL-148 = test system: CAL-148
Procedure, shortened: as §1

SK-BR-3 = test system: SK-BR-3
Procedure, shortened: as §1

MFM-223 = test system: MFM-223
Procedure, shortened: as §1

MDA-MB-453 = test system: MDA-MB-453
Procedure, shortened: as §1

DU-4475 = test system: DU-4475
Procedure, shortened: as §1

HCC1599 = test system: HCC1599
Procedure, shortened: as §1

CAL-51 = test system: CAL-51
Procedure, shortened: as §1

Hs578T = test system: Hs578T
Procedure, shortened: as §1

BT-474 = test system: BT-474
Procedure, shortened: as §1

BT-549 = test system: BT-549
Procedure, shortened: as §1

MDA-MB-468 = test system: MDA-MB-468
Procedure, shortened: as §1

HDQ-P1 = test system: HDQ-P1
Procedure, shortened: as §1

SMILES	normalised response (CAL-120)	normalised response (MCF-10A)	normalised response (CAL-85-1)	normalised response (MDA-MB-436)	normalised response (HCC1143)	normalised response (MDA-MB-231)	normalised response (HCC1937)	normalised response (CAL-148)	normalised response (SK-BR-3)	normalised response (MFM-223)	normalised response (MDA-MB-453)	normalised response (DU-4475)	normalised response (HCC1599)	normalised response (CAL-51)	normalised response (Hs578T)	normalised response (BT-474)	normalised response (BT-549)	normalised response (MDA-MB-468)	normalised response (HDQ-P1)
CCc1cncnc1N1CCN(Cc2nc3ccc(C(F)(F)F)cc3[nH]2)CC1 (1 nM)	101%	106%	97.3%	107%	99.5%	105%	95.5%	106%	110%	103%	115%	103%	114%	125%	101%	107%	108%	109%	105%
CCc1cncnc1N1CCN(Cc2nc3ccc(C(F)(F)F)cc3[nH]2)CC1 (10 nM)	101%	113%	99.1%	109%	111%	108%	98.1%	115%		103%	110%	104%	98.7%	111%	107%	108%	93.2%	101%	98.8%
CC[C@@H]1C(=O)N(C)c2cnc(Nc3ccc(C(=O)NC4CCN(C)CC4)cc3OC)nc2N1C1CCCC1 [BI 2536] (0.1 nM)	104%	106%	105%	104%	94.9%	103%	98.7%	102%	112%	106%	92.6%	103%	110%	103%	97.4%	105%	103%	108%	95.7%
CC[C@@H]1C(=O)N(C)c2cnc(Nc3ccc(C(=O)NC4CCN(C)CC4)cc3OC)nc2N1C1CCCC1 [BI 2536] (1 nM)	97.2%	102%	100%	100%	100%	101%	94.6%	112%	97.2%	96.5%	84.6%	107%	108%	133%	96.7%	101%	98.2%	92.6%	97.8%
O=C(O)CCCCC(CCSCc1ccccc1)SCc1ccccc1 (stereo not drawn) [CPI-613] (1 nM)	96.3%	106%	99.2%	96.5%	105%	100%	104%	107%	114%	99.1%	107%	101%	97.6%	78.6%	102%	101%	102%	103%	100%
O=C(O)CCCCC(CCSCc1ccccc1)SCc1ccccc1 (stereo not drawn) [CPI-613] (10 nM)	98.7%	112%	97.8%	105%	108%	96.2%	99%	103%	109%	105%	105%	104%	118%	95.5%	96.6%	105%	89.8%	101%	102%
C=CC(=O)Nc1cc2c(Nc3ccc(F)c(Cl)c3)ncnc2cc1OCCCN1CCOCC1 [Canertinib] (1 nM)	95.2%	108%	103%	94.5%	95.6%	104%	97.3%	103%	103%	105%	108%	105%	93.3%	104%	98.6%	96.8%	104%	106%	98.8%
C=CC(=O)Nc1cc2c(Nc3ccc(F)c(Cl)c3)ncnc2cc1OCCCN1CCOCC1 [Canertinib] (10 nM)	91.7%	76.6%	99.6%	99.2%	99.8%	106%	89.5%	102%	91%	103%	99.1%	107%	93.8%	84.3%	103%	106%	95.6%	96.3%	82.4%
O=C(O)C1(C(=O)O)CCC1.[NH2-].[NH2-].[Pt+2] [Carboplatin] (1 nM)	97%	108%	96.6%	101%	103%	104%	101%	100%	89.3%	98.8%	109%	100%	103%	115%	101%	98.9%	99%	95.2%	97.5%
O=C(O)C1(C(=O)O)CCC1.[NH2-].[NH2-].[Pt+2] [Carboplatin] (10 nM)	99.3%	103%	99.5%	95.4%	104%	97%	96.6%	105%		98.4%	99.7%	95.9%	99.2%	57.9%	101%	103%	102%	96.8%	96.9%
COc1cc2c(Oc3ccc4[nH]c(C)cc4c3F)ncnc2cc1OCCCN1CCCC1 [Cediranib] (0.1 nM)	101%	100%	101%	93.3%	98.1%	109%	104%	109%	106%	103%	107%	99.9%	93.4%	113%	94.8%	113%	101%	110%	103%
COc1cc2c(Oc3ccc4[nH]c(C)cc4c3F)ncnc2cc1OCCCN1CCCC1 [Cediranib] (1 nM)	105%	104%	109%	97.8%	106%	101%	94.7%	106%	99.8%	108%	99.7%	102%	93.9%	131%	97%	104%	101%	113%	98.6%
Cc1ccc(-c2cc(C(F)(F)F)nn2-c2ccc(S(N)(=O)=O)cc2)cc1 [Celecoxib] (10 nM)	101%	105%	103%	105%	104%	100%	98.3%	102%		102%	115%	101%	105%	106%	107%	27.3%	102%	100%	98.1%
Nc1ncn([C@H]2C[C@H](O)[C@@H](CO)O2)c(=O)n1 [Decitabine] (10 nM)	103%	98.5%	90%	97.3%	103%	102%	94.6%	95.4%		103%	97.7%	105%	102%	124%	96.3%	104%	93%	96%	98.8%
Nc1ccccc1NC(=O)c1ccc(CNC(=O)OCc2cccnc2)cc1 [Entinostat] (10 nM)	94.2%	109%	107%	102%	101%	98.6%	99.5%	104%		103%	94.6%	101%	95.7%	94%	102%	100%	96.8%	98.4%	97.5%
Nc1nc(F)nc2c1ncn2[C@@H]1O[C@H](CO)[C@@H](O)[C@@H]1O [Fludarabine] (10 nM)	101%	116%	98.8%	109%	108%	109%	107%	108%		110%	103%	107%	98.5%	120%	105%	108%	101%	105%	97%
N#Cc1ccc(C(c2ccc(C#N)cc2)n2cncn2)cc1 [Letrozole] (10 nM)	95.7%	108%	99.9%	97.1%	97.4%	101%	97.6%	99.3%		103%	102%	98.2%	98.2%	126%	103%	103%	95.3%	99.6%	97.8%
Cc1cnc(NC(=O)Nc2cc(Br)c(C)cc2OC[C@@H]2CNCCO2)cn1 [Rabusertib] (1 nM)	98.1%	105%	103%	104%	104%	107%	106%	118%		113%	109%	108%	101%	115%	102%	103%	94.6%	94.9%	90.4%
COc1cc([C@@H]2c3cc4c(cc3[C@@H](O[C@@H]3O[C@@H]5CO[C@@H](c6cccs6)O[C@H]5[C@H](O)[C@H]3O)[C@H]3COC(=O)[C@H]23)OCO4)cc(OC)c1O [Teniposide] (10 nM)	105%	98.8%	100%	89.7%	96.9%	99.4%	101%	93.2%		98%	101%	78.2%	103%	112%	100%	96.8%	91.9%	98.3%	95.3%
Oc1ncc(N(CCCl)CCCl)c(O)n1 [Uracil mustard] (10 nM)	102%	106%	95.2%	105%	105%	105%	99.7%	107%		103%	88.8%	97.7%	87%	80.1%	107%	103%	97.2%	90.3%	95.1%
CCCCC(=O)OCC(=O)[C@]1(O)Cc2c(O)c3c(c(O)c2[C@@H](O[C@H]2C[C@H](NC(=O)C(F)(F)F)[C@H](O)[C@H](C)O2)C1)C(=O)c1c(OC)cccc1C3=O [Valrubicin] (5 nM)	94.6%	106%	95.6%	101%	102%	97%	102%	105%		105%	103%	101%	96.5%	60.1%	102%	97.6%	91.1%	93.1%	95.5%
